Experimental data as given in US4206224A, “Treatment of infections” (Beecham Group Limited, priority 1976, dated 1980).
In brackets after ≈: the same amount, converted by molar mass. Entries after “also recorded” stand apart in the source; their conditions may differ. Counter-ions that a name gives are not always drawn.

How the values were obtained:
[1] = test system: M. dispar H225; experiment: Antimycoplasmal MIC, metabolic-inhibition test, M. dispar H225; assay type: cell-based; conditions: 168 h, dilutions 250-0.5 μg/ml, 37° C., seven days, read-out: MIC (in vitro antimycoplasmal activity)
[2] = test system: M. bovis 25025; experiment: microbe, parasite or virus in culture; assay type: cell-based; conditions: 25025, 168 h, read-out: MIC (in vitro antimycoplasmal activity)
[3] = test system: M. fermentans MW KL 4; experiment: Antimycoplasmal MIC, metabolic-inhibition test, M. fermentans MW KL 4; assay type: cell-based; conditions: Mycoplasmopsis fermentans, MWKL4, 168 h, dilutions 250-0.5 μg/ml, 37° C., seven days, read-out: MIC (in vitro antimycoplasmal activity)
[4] = test system: M. synoviae 25204; experiment: Antimycoplasmal MIC, metabolic-inhibition test, M. synoviae 25204; assay type: cell-based; conditions: Mycoplasmopsis synoviae, 168 h, dilutions 250-0.5 μg/ml, 37° C., seven days, read-out: MIC (in vitro antimycoplasmal activity)
[5] = test system: M. pulmonis 'JB'; experiment: Antimycoplasmal MIC, metabolic-inhibition test, M. pulmonis 'JB'; assay type: cell-based; conditions: Mycoplasmopsis pulmonis, 168 h, dilutions 250-0.5 μg/ml, 37° C., seven days, read-out: MIC (in vitro antimycoplasmal activity)
[6] = test system: M. gallisepticum S6; experiment: Antimycoplasmal MIC, metabolic-inhibition test, M. gallisepticum S6; assay type: cell-based; conditions: Mycoplasmoides gallisepticum, 168 h, dilutions 250-0.5 μg/ml, 37° C., seven days, read-out: MIC (in vitro antimycoplasmal activity)
[7] = test system: mycoplasmas from human and veterinary sources; experiment: Antimycoplasmal activity in vitro, overall; assay type: cell-based
Description: 1. The minimal inhibitory concentrations (MIC) of pseudomonic acid and methyl pseudomonate were determined in Microtitre plates, by a modification of the metabolic-inhibition test (Taylor-Robinson, 1967). The compounds were serially diluted in sterile de-ionised water to give a range of concentrations from 250-0.5 μg/ml. Mycoplasma broth containing 1% (w/v) of glucose and 0.005% (w/v) of phenon red, was added at a strength to compensate for its dilution by the aqueous drug solution. Approximately 10^4 colony forming units of mycoplasma were added to each concentration of drug. Drug-free infected, noninfected and pH control wells were included on each plate. Plates were sealed with cellotape and incubated at 37° C. for seven days. The MIC was the lowest concentration of compound that prevented a colour change in the mycoplasma broth, caused by the metabolism of glucose by the mycoplasmas.

[8] = test system: M. pneumoniae 427 a; experiment: Antimycoplasmal MIC, metabolic-inhibition test, M. pneumoniae 427 a; assay type: cell-based; conditions: Mycoplasmoides pneumoniae, 168 h, dilutions 250-0.5 μg/ml, 37° C., seven days, read-out: MIC (in vitro antimycoplasmal activity)
[9] = test system: M. suipneumoniae (Laber); experiment: Antimycoplasmal MIC, metabolic-inhibition test, M. suipneumoniae (Laber); assay type: cell-based; conditions: Mesomycoplasma hyopneumoniae, 168 h, dilutions 250-0.5 μg/ml, 37° C., seven days, read-out: MIC (in vitro antimycoplasmal activity)
[10] = test system: streptococci; experiment: Antibacterial spectrum, streptococci; assay type: cell-based; conditions: most streptococci
[11] = test system: Streptococcus faecalis; experiment: Antibacterial spectrum (MIC), Streptococcus faecalis; assay type: cell-based; conditions: Enterococcus faecalis
[12] = Toxicity (LD50), mouse; assay type: in vivo; conditions: for LD50: in vivo
[13] = test system: Staphylococcus aureus; experiment: Antibacterial spectrum (MIC), Staphylococcus aureus; assay type: cell-based
[14] = test system: M. synoviae ATCC 25204; experiment: M. synoviae-induced airsacculitis of chicken; assay type: in vivo, chicken (white leghorn chicks) infected with M. synoviae
Description: 3. M. synoviae-induced airsacculitis of chicken 0.5 ml volumes of a broth culture containing about 10^8 CFU of M. synoviae ATCC No. 25204 were injected into the left abdominal air sacs of groups of five, one week old, specific pathogen free (SPF) white leghorn chicks. […] Seven days after infection the chicks were autopsied and the air sacs were examined macroscopically for mycoplasmal lesions and microbiologically for the presence of M. synoviae.

[15] = test system: Staphylococcus epidermidis; experiment: Antibacterial spectrum (MIC), Staphylococcus epidermidis; assay type: cell-based
[16] = test system: Gram-negative bacilli; experiment: Antibacterial spectrum (MIC), Gram-negative bacilli
[17] = Blood and urinary excretion levels, dog; assay type: in vivo; conditions: 100 mg/kg; for Cmax: blood, read-out: Peak Level (blood); for dose excreted: urine, read-out: Urinary Recovery
Description: (§1) The results of administering pseudomonic acid to four different animal species are shown in Table 2 in terms of peak blood levels and urinary recovery.

[18] = Blood and urinary excretion levels, rat; assay type: in vivo; conditions: 100 mg/kg; for Cmax: blood, read-out: Peak Level (blood); for dose excreted: urine, read-out: Urinary Recovery
Description: as §1

[19] = test system: staphylococci; experiment: Antibacterial spectrum, staphylococci; assay type: cell-based
[20] = test system: Streptococcus pneumoniae; experiment: Antibacterial spectrum (MIC), Streptococcus pneumoniae; assay type: cell-based
[21] = test system: Haemophilus influenzae; experiment: Antibacterial spectrum (MIC), Haemophilus influenzae; assay type: cell-based
[22] = test system: Neisseria meningitidis; experiment: Antibacterial spectrum (MIC), Neisseria meningitidis; assay type: cell-based
[23] = test system: M. pulmonis 'JB'; experiment: M. pulmonis-induced arthritis of mice; conditions: for Number of mice with arthritis/total number mice: 200 mg/kg × 5 s.c.; for prevented the development of arthritis: 200 mg/kg s.c. daily, five consecutive days
[24] = test system: Bordetella bronchiseptica; experiment: Antibacterial activity, Bordetella bronchiseptica; assay type: cell-based
[25] = test system: Neisseria gonorrhoeae; experiment: Antibacterial spectrum (MIC), Neisseria gonorrhoeae; assay type: cell-based
[26] = Blood and urinary excretion levels, squirrel monkey; assay type: in vivo; conditions: 100 mg/kg; for Cmax: blood, read-out: Peak Level (blood); for dose excreted: urine, read-out: Urinary Recovery
Description: as §1

[27] = Toxicity (LD50), rat; assay type: in vivo; conditions: for LD50: in vivo
[28] = Blood and urinary excretion levels, mouse; assay type: in vivo; conditions: 50 mg/kg; for Cmax: blood, read-out: Peak Level (blood); for dose excreted: urine, read-out: Urinary Recovery
Description: as §1

[29] = test system: Streptococcus pyogenes; experiment: Antibacterial spectrum (MIC), Streptococcus pyogenes; assay type: cell-based
[30] = test system: Mycoplasma species; experiment: Antibacterial spectrum (MIC), Mycoplasma species
[31] = test system: Pasteurella multocida; experiment: Antibacterial activity, Pasteurella multocida; assay type: cell-based

## C/C(=C\C(=O)OCCCCCCCCC(=O)O)C[C@@H]1OC[C@H](C[C@@H]2O[C@H]2[C@@H](C)[C@H](C)O)[C@@H](O)[C@H]1O [Pseudomonic acid (Na salt)]
[1]
  MIC: < 0.5 µg/mL
[2]
  MIC: < 0.5 µg/mL
[3]
  MIC: < 0.5 µg/mL
[4]
  MIC: < 0.5 µg/mL
[5]
  MIC: < 0.5 µg/mL
[6]
  MIC: 7.8 µg/mL
[7]
  antimycoplasmal activity in vitro (in words): good antimycoplasmal activity in vitro
[8]
  MIC: < 0.5 µg/mL
[9]
  MIC: 1.9 to 3.9 µg/mL

## C/C(=C\C(=O)OCCCCCCCCC(=O)O)C[C@@H]1OC[C@H](C[C@@H]2O[C@H]2[C@@H](C)[C@H](C)O)[C@@H](O)[C@H]1O [Pseudomonic acid]
[10]
  antibacterial activity (in words): good activity
[11]
  MIC: 50 µg/mL (≈ 99.9 µM)
[12]; iv
  LD50: 1640 to 2050 mg/kg
[12]; p.c. (so in the source)
  LD50: 5000 mg/kg
[12]; sc
  LD50: 4000 to 5000 mg/kg
[12]; three routes
  toxicity (in words): low degree of toxicity
[13]
  MIC: 0.25 µg/mL (≈ 0.499 µM)
[14]; 200 mg/kg i.m. twice per day
  prevented the development of airsac lesions: four out of five birds
  re-isolation of M. synoviae from airsacs (in words): not re-isolated from the airsacs of any
[14]; 200 mg/kg × 7 i.m., autopsy seven days after infection
  Number birds protected/total: 4/5
[14]; 200 mg/kg × 7 i.m., seven days after infection
  Number of birds from which M. synoviae was re-isolated: 0
[14]; chicken
  activity in vivo in experimentally induced mycoplasmal infection (in words): active in vivo
[15]
  MIC: 0.25 µg/mL (≈ 0.499 µM)
[16]
  antibacterial activity (in words): relatively inactive
[17]; im
  Cmax: 25300 ng/mL
  dose excreted: 1%
[17]; po
  Cmax: 3600 ng/mL
  dose excreted: < 1%
[18]; im
  Cmax: 15800 ng/mL
  dose excreted: < 1%
[18]; iv
  Cmax: 66700 ng/mL
  dose excreted: < 1%
[19]
  antibacterial activity (in words): good activity
[20]
  MIC: 0.12 µg/mL (≈ 0.24 µM)
[21]
  MIC: 0.12 µg/mL (≈ 0.24 µM)
[21]; including strains resistant to other antibiotics
  antibacterial activity / susceptibility (in words): very susceptible; also recorded: particularly high activity
[22]
  MIC: 0.02 µg/mL (≈ 0.0399 µM)
[23]; Expt 1, day 3 after infection
  Number of mice with arthritis/total number mice: 0/6
[23]; Expt 1, day 7 after infection
  Number of mice with arthritis/total number mice: 1/5
[23]; Expt 1, day 10 after infection
  Number of mice with arthritis/total number mice: 1/5
[23]; Expt 1, day 14 after infection
  Number of mice with arthritis/total number mice: 1/5
[23]; Expt 2, day 3 after infection
  Number of mice with arthritis/total number mice: 0/8
[23]; Expt 2, day 8 after infection
  Number of mice with arthritis/total number mice: 2/8
[23]; Expt 2, day 10 after infection
  Number of mice with arthritis/total number mice: 2/8
[23]; Expt 2, day 14 after infection
  Number of mice with arthritis/total number mice: 4/8
[23]; first experiment
  prevented the development of arthritis: four out of five mice
[23]; mice
  activity in vivo in experimentally induced mycoplasmal infection (in words): active in vivo
[23]; second experiment
  prevented the development of arthritis: four out of eight mice
[24]
  antibacterial activity (in words): has activity
[25]; Neisseria gonorrhoeae
  MIC: 0.01 µg/mL (≈ 0.02 µM)
[25]; Neisseria gonorrhoeae (gonococci), including strains resistant to other antibiotics
  antibacterial activity / susceptibility (in words): very susceptible; also recorded: particularly high activity
[26]; im
  Cmax: 40000 ng/mL
  dose excreted: 2%
[26]; po
  Cmax: 26800 ng/mL
  dose excreted: 1.5%
[27]; iv
  LD50: 1310 to 2560 mg/kg
[27]; po
  LD50: 5000 mg/kg
[27]; sc
  LD50: 5000 mg/kg
[27]; three routes
  toxicity (in words): low degree of toxicity
[28]; po
  Cmax: < 1000 ng/mL
  dose excreted: < 1%
[28]; sc
  Cmax: 7200 ng/mL
  dose excreted: < 1%
[29]
  MIC: 0.25 µg/mL (≈ 0.499 µM)
[30]; Mycoplasma sp, b37: most mycoplasma species
  antimycoplasmal activity / sensitivity (in words): very sensitive; also recorded: particularly high activity
[30]; Mycoplasma species
  MIC: <0.01 to 25 µg/mL
[31]
  antibacterial activity (in words): has activity

## COC(=O)CCCCCCCCOC(=O)/C=C(\C)C[C@@H]1OC[C@H](C[C@@H]2O[C@H]2[C@@H](C)[C@H](C)O)[C@@H](O)[C@H]1O [methyl pseudomonate]
[1]
  MIC: < 0.5 µg/mL
[2]
  MIC: < 0.5 µg/mL
[3]
  MIC: < 0.5 µg/mL
[4]
  MIC: < 0.5 µg/mL
[5]
  MIC: < 0.5 µg/mL
[6]
  MIC: 15.6 µg/mL (≈ 30.3 µM)
[7]
  antimycoplasmal activity in vitro (in words): good antimycoplasmal activity in vitro
[8]
  MIC: 7.8 µg/mL (≈ 15.2 µM)
[9]
  MIC: 7.8 µg/mL (≈ 15.2 µM)
